We go through one compound from patent US20240197666A1, “DITERPENOID COMPOUNDS THAT ACT ON PROTEIN KINASE C (PKC)” (K-Gen Therapeutics, Inc., priority 2021, published 2024).

SMILES strings stand for the structures.

The test system of the test is Panc2.13 tumors. Nature of the test: Panc2.13 xenograft model, intra-tumoral injection. The format is in vivo, mouse. The settings on record: end of efficacy study, three mice per group, seven daily IT injections. As to the method: Immunodeficient (athymic) Nu/Nu mice were implanted at one flank subcutaneously with Panc2.13 pancreatic cancer cells. […] All groups tolerated drug treatments very well. […] Scabs formed after 1-2 weeks and the skin recovered with minimal scaring after 3-4 weeks. Tumor growth/re-growth on or near the injection site was monitored for up to 55 days. […] Tumor growth inhibition is calculated by dividing the group average tumor volume for the treated group by the group average tumor volume for the control group (TIC). A one-way ANOVA was performed to compare tumor volume among groups, and when a significant F-statistics (a ratio of treatment variance to the error variance) was obtained, comparisons between groups were carried out with Games-Howell test. All data were analyzed using GraphPad 5.0. P<0.05 was considered to be statistically significant.
A Mann-Whitney method was performed to analyze the tumor clearance rate comparing drug treated groups with the vehicle group at the end of the efficacy study. P<0.05 was considered to be statistically significant. Vehicle-injected tumors kept growing and there was no tumor clearance at the end point.

For `CC1=C[C@H]2[C@@]3(O)[C@H](C)C[C@]4(OC(=O)[C@H](N)CCCCCCc5ccccc5)[C@H]([C@@H]3C=C(CO)C[C@]2(O)C1=O)C4(C)C` [Compound K101-K134801], the tumor clearance entry is “complete clearance of tumors”.
